Test results from ChEMBL document CHEMBL1909046, “DrugMatrix in vitro pharmacology data”.

Assays:
[1] = DRUGMATRIX: Imidazoline I2, Central radioligand binding (ligand: [3H] Idazoxan); type: cell membranes, Rattus norvegicus, Wistar, Cerebral cortex, Membrane; settings: Not Active = under 50% inhibition at 10 µM
[2] = biological target: D(3) dopamine receptor (Homo sapiens, UniProt P35462); test: DRUGMATRIX: Dopamine D3 radioligand binding (ligand: [3H] Spiperone); type: cell membranes, CHO, Membrane; settings: cho
Sequence of D(3) dopamine receptor (P35462 whole entry): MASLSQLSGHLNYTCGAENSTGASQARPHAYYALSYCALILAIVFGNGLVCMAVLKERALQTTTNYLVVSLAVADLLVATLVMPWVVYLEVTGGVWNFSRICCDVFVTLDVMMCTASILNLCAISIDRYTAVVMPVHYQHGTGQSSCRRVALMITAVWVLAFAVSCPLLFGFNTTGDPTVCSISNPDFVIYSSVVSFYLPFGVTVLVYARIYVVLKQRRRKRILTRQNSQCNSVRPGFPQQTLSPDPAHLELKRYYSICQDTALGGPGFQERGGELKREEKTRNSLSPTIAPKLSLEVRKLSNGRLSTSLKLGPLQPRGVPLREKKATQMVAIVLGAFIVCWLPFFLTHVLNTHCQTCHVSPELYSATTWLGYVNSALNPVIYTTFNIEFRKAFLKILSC

[3] = biological target: T1, Muscarinic acetylcholine receptor M2 (Homo sapiens, UniProt P08172); type: cell membranes, CHO-K1, Membrane; settings: cho-k1; note: in other assays of this panel Not Active means under 50% inhibition at 10 µM
T1 sequence (P08172 whole entry): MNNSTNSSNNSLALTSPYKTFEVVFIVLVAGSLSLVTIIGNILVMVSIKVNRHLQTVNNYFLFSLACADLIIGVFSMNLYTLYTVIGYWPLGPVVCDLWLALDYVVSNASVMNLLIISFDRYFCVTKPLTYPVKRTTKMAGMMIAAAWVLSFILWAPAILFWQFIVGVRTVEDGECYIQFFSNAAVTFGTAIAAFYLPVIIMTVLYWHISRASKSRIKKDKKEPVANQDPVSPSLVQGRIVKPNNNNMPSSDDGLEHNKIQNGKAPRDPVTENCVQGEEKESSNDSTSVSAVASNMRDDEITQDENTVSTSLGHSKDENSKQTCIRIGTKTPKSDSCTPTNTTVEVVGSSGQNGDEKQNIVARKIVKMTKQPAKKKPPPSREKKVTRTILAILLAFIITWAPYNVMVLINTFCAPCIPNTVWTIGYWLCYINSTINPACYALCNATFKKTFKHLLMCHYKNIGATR

[4] = biological target: T2, Alpha-1D adrenergic receptor (Homo sapiens, UniProt P25100); type: cell membranes, HEK293, Membrane; settings: hek293; note: in other assays of this panel Not Active means under 50% inhibition at 10 µM
T2 sequence (P25100 whole entry): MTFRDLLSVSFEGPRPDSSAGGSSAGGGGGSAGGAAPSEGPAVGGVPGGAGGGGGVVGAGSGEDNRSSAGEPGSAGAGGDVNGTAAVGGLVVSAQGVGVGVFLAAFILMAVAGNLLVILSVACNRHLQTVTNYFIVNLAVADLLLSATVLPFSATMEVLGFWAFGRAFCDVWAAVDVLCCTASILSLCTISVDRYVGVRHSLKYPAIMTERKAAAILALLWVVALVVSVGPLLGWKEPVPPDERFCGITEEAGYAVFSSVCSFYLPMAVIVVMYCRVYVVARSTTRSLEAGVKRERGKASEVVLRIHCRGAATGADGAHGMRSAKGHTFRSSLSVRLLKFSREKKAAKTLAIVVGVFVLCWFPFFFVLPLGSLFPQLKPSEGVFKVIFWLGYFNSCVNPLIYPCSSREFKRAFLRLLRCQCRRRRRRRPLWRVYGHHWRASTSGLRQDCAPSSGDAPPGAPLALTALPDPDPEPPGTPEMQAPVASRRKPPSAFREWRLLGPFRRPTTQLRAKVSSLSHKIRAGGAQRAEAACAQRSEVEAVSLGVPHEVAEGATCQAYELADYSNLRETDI

[5] = DRUGMATRIX: Potassium Channel [KATP] radioligand binding (ligand: [3H] Glyburide); type: cell membranes, Membrane; settings: hit-t15; Not Active = under 50% inhibition at 10 µM

CC1(C)O[C@@H]2C[C@H]3[C@@H]4CCC5=CC(=O)C=C[C@]5(C)[C@@]4(F)[C@@H](O)C[C@]3(C)[C@]2(C(=O)CO)O1 [TRIAMCINOLONE ACETONIDE]
Not Active: IC50 [1] | Ki [1] | IC50 [2] | IC50 [3] | IC50 [4] | IC50 [5] | Ki [5]

NS(=O)(=O)c1cc2c(cc1Cl)NC(C(Cl)Cl)NS2(=O)=O (centres undefined) [TRICHLORMETHIAZIDE]
Not Active: IC50 [1] | Ki [1] | IC50 [2] | IC50 [3] | IC50 [4] | IC50 [5] | Ki [5]

Cc1c(C)c2c(c(C)c1O)CCC(C)(COc1ccc(CC3SC(=O)NC3=O)cc1)O2 (centres undefined) [TROGLITAZONE]
Not Active: IC50 [1] | Ki [1] | IC50 [2] | IC50 [3] | IC50 [4] | IC50 [5] | Ki [5]

N[C@@H]1[C@H]2CN(c3nc4c(cc3F)c(=O)c(C(=O)O)cn4-c3ccc(F)cc3F)C[C@@H]12 [TROVAFLOXACIN]
Not Active: IC50 [1] | Ki [1] | IC50 [2] | IC50 [3] | IC50 [4] | IC50 [5] | Ki [5]

N#CC(C#N)=Cc1ccc(O)c(O)c1 [TYRPHOSTIN 23]
Not Active: IC50 [1] | Ki [1] | IC50 [2] | IC50 [3] | IC50 [4] | IC50 [5] | Ki [5]

CC[C@]1(O)C[C@H]2CN(CCc3c([nH]c4ccccc34)[C@@](C(=O)OC)(c3cc4c(cc3OC)N(C=O)[C@H]3[C@@](O)(C(=O)OC)[C@H](OC(C)=O)[C@]5(CC)C=CCN6CC[C@]43[C@@H]65)C2)C1 [VINCRISTINE]
Not Active: IC50 [1] | Ki [1] | IC50 [2] | IC50 [3] | IC50 [4] | IC50 [5] | Ki [5]

CCCOc1ccccc1-c1nc2nn[nH]c2c(=O)[nH]1 [ZAPRINAST]
Not Active: IC50 [1] | Ki [1] | IC50 [2] | IC50 [3] | IC50 [4] | IC50 [5] | Ki [5]

SODIUM NITROPRUSSIDE
Not Active: IC50 [1] | Ki [1] | IC50 [2] | Ki [2] | IC50 [3] | Ki [3] | IC50 [4] | Ki [4] | IC50 [5] | Ki [5]
